Results from paper PMC9343080, “Distribution- and Metabolism-Based Drug Discovery: A Potassium-Competitive Acid Blocker as a Proof of Concept” (Research, 2022).
Counter-ions that a name gives are not always drawn. Like-named read-outs stand apart in the source and are kept apart here. Values belong to the compound of their own block, whether it stands above or below them.

Legend:
[1] = parameters: method as in PMID 27414183; conditions: human hepatocytes; ref [42]; cited from earlier work
[2] = biological target: T1, rabbit gastric H+, K+-ATPase (Oryctolagus cuniculus, UniProt P27112); assay: In vitro enzymatic activity assay (inorganic phosphate from ATP hydrolysis); format: biochemical
T1 construct: using rabbit gastric H^+, K^+-ATPase; from tissue; host or cells: rabbit stomach (gastric preparation; the method of preparation is not described)
Method: The in vitro enzymatic activity was calculated by measuring the inorganic phosphate produced by the hydrolysis of ATP using rabbit gastric H^+, K^+-ATPase. 0.25 μg enzyme was preincubated at 37°C for 30 min in Tris-HCl buffer (2.0 mL, 50 mM, pH 6.5) containing 5 mM MgCl2, 10 μM valinomycin, 0 or 20 mM KCl, and different concentrations of SH-337 and vonoprazan. The reaction was initiated by adding 5 μL of 5 mM ATP 2Na, and the preparation was incubated for 30 min at 37°C and halted by the addition of 100 μL of malachite green reagent (0.12% malachite green, 7.5% ammonium molybdate, and 11% tween 20 were mixed in a volume ratio of 100 : 25 : 2). H^+, K^+-ATPase activity was calculated after subtracting the enzyme activity in the absence of KCl.

[3] = log D7.4 measurement (1-octanol/PBS pH 7.4); format: physicochemical; conditions: 1-octanol/PBS, pH 7.4, pH 7.4
Method: (§1) Procedure for pKa and log D7.4 measurements. The pKa was determined using pH-metric Method from DMSO Stock Solution. Procedure for Log D determinations: 15 µL of stock solutions of test compounds and control compound was placed in order into their proper 96-well rack. 500 µL of PBS saturated 1-octanol was added into each vial of the cap-less Log D plate followed by the addition of 500 µL of 1-octanol saturated PBS (pH 7.4). One stir stick was added to each vial and a molded PTFE/Silicone plug was used to seal each vial. Then the Log D plate was transferred to the Eppendorf Thermomixer Comfort plate shaker and shaken at 25°C at 1,100 RPM for 1 hour. After completion of 1 hour, plugs were removed and the stir sticks were removed using a big magnet. The samples were then centrifuged at 25°C at 20,000 g for 20 minutes to separate the phases, and pipette and syringe were used to remove the upper (1-octanol) and lower (buffer) phases to the empty tubes, respectively. Aliquots of 5 µL were taken from upper phases followed by addition of 495 µL of a mixture of H2O and acetonitrile (1:1 in v/v). Vortex for 1 minute, and then aliquots of 50 µL were taken from the diluent followed by addition of 450 µL of a mixture of H2O and acetonitrile (1:1 in v/v). And aliquots of 50 µL were taken from lower phases followed by addition of 450 µL of a mixture of H2O and acetonitrile (1:1 in v/v). 200 μL of diluent was transferred to a new 96-well plate for LC-MS/MS analysis. The dilution factor was changed according to the Log D value and the LC-MS signal response. The concentrations of test compound and control compound in 1-octanol/buffer solution were evaluated by LC-MS/MS. The Log D values of the test compounds and control compound were calculated as follows: […]

[4] = pKa measurement (pH-metric method); format: physicochemical; conditions: read-out: pKa
Method: as §1

[5] = cited from earlier work
[6] = Metabolite identification and profiling in rat hepatocytes; format: in vitro ADME; conditions: for Relative peak area, RHeps: SH-337, rat hepatocytes, 60 min incubation
Method: (§2) SH-337 was incubated with rat or human hepatocytes at a concentration of 1.0 × 10^6 cells/mL for 60 min or 120 min (rat 60 min, human 120 min) at 37°C in a CO2 incubator. The samples were precipitated with acetonitrile at 1 : 2 and further centrifuged; the supernatants were dried with a stream of N2 gas. The residues were reconstituted with 300 μL of 10% acetonitrile/H2O (0.1% TFA) and analyzed by LC-MS/MS. The assays were pursued under the conditions provided in Supplementary Tables S5–S8.

[7] = Metabolite profiling, range over rat and human liver microsomes; format: in vitro ADME; conditions: rat and human microsomes after 30 and 60 min incubation
Method: (§3) Liver microsomes (1 mg protein/mL) were suspended in phosphate buffer (50 mM, pH 7.4) containing MgCl2 (6 mM). […] The reactions were initiated at 37°C by the addition of 1 mM NADPH and terminated at 30 min or 60 min (30 min for rat; 60 min for human). The samples were precipitated with acetonitrile at 1 : 2 and further centrifuged; the supernatants were dried with a stream of N2 gas. The residues were reconstituted with 300 μL of 10% acetonitrile/H2O (0.1% TFA) and analyzed by LC-MS/MS. The assays were pursued under the conditions provided in Supplementary Tables S4, S6, S7, and S8.

[8] = Metabolite profiling, range over rat and human hepatocytes; format: in vitro ADME; conditions: rat and human hepatocytes after 60 and 120 min incubation
Method: as §2

[9] = Tissue distribution of SH-337 in rats (LC-MS/MS); format: in vivo, rat
Method: 15 SPF male SD rats were randomly divided into 5 groups, three per group. Fasting was for 4 hours. Plasma, heart, liver, and stomach were obtained 0.25, 1, 2, 4, and 24 hours after oral administration of SH-337 (0.4 mg/mL in water) at a dose of 4 mg/kg. At designated time points, rats were anesthetized with ether, and the blood samples were collected via the abdominal aorta. The blood was immediately cooled under ice-chilled conditions and centrifuged at approximately 1500 × g at 4°C for 10 minutes to obtain the plasma. For plasma: 20 μL Std samples in duplicate, QC samples in duplicate, and rat plasma samples were mixed with 60 μL ACN containing IS (200 ng/mL of tolbutamide, 50 ng/mL of propranolol, and 500 ng/mL of Dic) in EP tubes. After the mixture was vortexed for 1 min and then centrifuged for 10 min (13000 rpm, 4°C), transfer 50 μL supernatant to a 96-well plate with 150 μL pure water, shake for 10 min, and finally analyze by LC-MS/MS. For heart and liver: tissue samples were added with 3-folds (w/v) saline in terms of the weight of samples and then homogenated. 20 μL Std samples in duplicate, QC samples in duplicate, and rat heart and liver samples were mixed with 60 μL ACN containing IS (200 ng/mL of tolbutamide, 50 ng/mL of propranolol, and 500 ng/mL of Dic) in EP tubes. After the mixture was vortexed for 1 min and then centrifuged for 10 min (13000 rpm, 4°C), transfer 50 μL supernatant to a 96-well plate with 150 μL pure water, shake for 10 min, and finally analyze by LC-MS/MS. For stomach: tissue samples were added with 3-folds (w/v) saline in terms of the weight of samples and then homogenated. 20 μL Std samples in duplicate, QC samples in duplicate, and rat stomach samples were mixed with 60 μL ACN containing IS (200 ng/mL of tolbutamide, 50 ng/mL of propranolol, and 500 ng/mL of Dic) in EP tubes. After the mixture was vortexed for 1 min and then centrifuged for 10 min (13000 rpm, 4°C), transfer 50 μL supernatant to a 96-well plate with 150 μL pure water, shake for 10 min, and finally analyze by LC-MS/MS.

[10] = Metabolite identification and profiling in rat liver microsomes; format: in vitro ADME
Method: as §3

[11] = Metabolite identification and profiling in human liver microsomes; format: in vitro ADME
Method: as §3

[12] = Metabolite identification and profiling in human hepatocytes; format: in vitro ADME
Method: as §2

[13] = rats, i.g. 2 mg/kg vonoprazan, ref [43]

T1 sequence (P27112 whole entry): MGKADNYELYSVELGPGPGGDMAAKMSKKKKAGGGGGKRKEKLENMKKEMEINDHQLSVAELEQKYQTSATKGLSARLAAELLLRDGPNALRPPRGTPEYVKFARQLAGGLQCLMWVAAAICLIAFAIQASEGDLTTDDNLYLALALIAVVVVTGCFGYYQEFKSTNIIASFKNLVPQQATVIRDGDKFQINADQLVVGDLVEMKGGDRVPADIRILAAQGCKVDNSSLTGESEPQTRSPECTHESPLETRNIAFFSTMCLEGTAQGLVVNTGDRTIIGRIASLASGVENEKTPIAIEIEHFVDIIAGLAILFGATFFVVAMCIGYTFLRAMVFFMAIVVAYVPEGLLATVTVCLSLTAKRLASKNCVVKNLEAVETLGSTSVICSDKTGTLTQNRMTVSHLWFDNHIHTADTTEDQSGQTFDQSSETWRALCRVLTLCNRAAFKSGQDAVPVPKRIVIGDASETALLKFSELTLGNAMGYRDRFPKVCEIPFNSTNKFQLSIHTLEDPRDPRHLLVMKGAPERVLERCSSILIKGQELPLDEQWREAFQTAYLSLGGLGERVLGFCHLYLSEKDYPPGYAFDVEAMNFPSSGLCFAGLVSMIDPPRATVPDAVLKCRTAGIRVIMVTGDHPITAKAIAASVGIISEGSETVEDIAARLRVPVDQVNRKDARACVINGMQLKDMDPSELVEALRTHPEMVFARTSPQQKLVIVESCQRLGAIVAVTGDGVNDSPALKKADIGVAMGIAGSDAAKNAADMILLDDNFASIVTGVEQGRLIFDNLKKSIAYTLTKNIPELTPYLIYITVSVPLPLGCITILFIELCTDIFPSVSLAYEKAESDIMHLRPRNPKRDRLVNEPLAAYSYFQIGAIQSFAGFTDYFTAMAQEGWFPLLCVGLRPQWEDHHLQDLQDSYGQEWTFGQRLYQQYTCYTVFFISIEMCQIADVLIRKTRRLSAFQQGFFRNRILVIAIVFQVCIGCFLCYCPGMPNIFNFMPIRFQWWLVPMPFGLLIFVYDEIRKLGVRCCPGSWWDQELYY
T1 sequence (P18597 whole entry partner): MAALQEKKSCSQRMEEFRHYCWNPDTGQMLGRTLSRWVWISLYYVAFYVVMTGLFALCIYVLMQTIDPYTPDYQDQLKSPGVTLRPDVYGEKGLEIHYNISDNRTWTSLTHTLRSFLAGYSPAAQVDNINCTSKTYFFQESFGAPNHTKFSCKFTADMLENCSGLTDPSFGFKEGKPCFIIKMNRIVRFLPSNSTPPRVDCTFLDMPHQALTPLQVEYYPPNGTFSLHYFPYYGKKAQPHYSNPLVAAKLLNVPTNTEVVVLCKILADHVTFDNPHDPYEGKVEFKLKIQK

SMILES: NCc1cc(-c2ccccc2F)n(S(=O)(=O)c2cccnc2)c1 [N-demethylated vonoprazan]
share in the in vitro metabolic profile of vonoprazan [1]: 30%

IC50 [2]: 129 nM | logD at 1 h [3]: 0.91 | pKa [4]: 9.13
SMILES: CNCc1cc(-c2ccc(OCC3COC3)cc2F)n(S(=O)(=O)c2cccnc2)c1 [S2, 1-(5-(2-fluoro-4-(oxetan-3-ylmethoxy)phenyl)-1-(pyridin-3-ylsulfonyl)-1H-pyrrol-3-yl)-N-methylmethanamine dihydrochloride]

SMILES: O=C(O)c1cc(-c2ccccc2F)n(S(=O)(=O)c2cccnc2)c1 [M-I]
AUC0–24 in the liver ([5]; after oral dosing of 2.0 mg/kg vonoprazan, ref [43]): 18400 ng·h/g | fold higher levels compared with those of vonoprazan ([5]; plasma, liver and kidney, rat model, ref [44]): 4.3- to 58 fold | AUC0–24, Liver [5, 13]: 18404.0 ng equiv. h/mL or g | AUC0–24, Plasma [5, 13]: 4392.0 ng equiv. h/mL or g | AUC0–24, Stomach [5, 13]: 918.0 ng equiv. h/mL or g | share in the in vitro metabolic profile of vonoprazan [1]: 18%

SMILES: CN(Cc1cc(-c2ccc(OCC3CC3)cc2F)n(S(=O)(=O)c2cccnc2)c1)S(=O)(=O)O [Sulfated SH-337]
Relative peak area, RHeps [6]: 0.1% | Percentage of all SH-337 metabolites in microsomes [7]: 0% | Percentage of all SH-337 metabolites in hepatocytes [8]: 0.13%

IC50 [2]: 57.8 nM | logD at 1 h [3]: 0.5 | pKa [4]: 9.26
SMILES: CNCc1cc(-c2ccc(OCc3cnn(C)c3)cc2F)n(S(=O)(=O)c2cccnc2)c1 [S1, 1-(5-(2-fluoro-4-((1-methyl-1H-pyrazol-4-yl)methoxy)phenyl)-1-(pyridin-3-ylsulfonyl)-1H-pyrrol-3-yl)-N-methylmethanamine fumarate]

SMILES: CN(Cc1cc(-c2ccc(O)cc2F)n(S(=O)(=O)c2cccnc2)c1)S(=O)(=O)O [M-IV-Sul]
share in the in vitro metabolic profile of vonoprazan [1]: 28%

SMILES: CNCc1cc(-c2ccc(O)cc2F)n(S(=O)(=O)c2cccnc2)c1.Cl.Cl [M-IV, 3-fluoro-4-(4-((methylamino)methyl)-1-(pyridin-3-ylsulfonyl)-1H-pyrrol-2-yl)phenol dihydrochloride]
IC50 [2]: 112 nM | AUC0–24 in the liver ([9]; after oral dosing of 4.0 mg/kg SH-337): 3410 ng·h/g | AUC(0-t) ([9]; male, SD, rat, plasma, po, rats, i.g. 4 mg/kg SH-337, read-out: AUC0–24, Plasma): 20.3 ng·h/mL | AUC0–24, Liver ([9]; rats, i.g. 4 mg/kg SH-337): 3411.2 ng equiv. h/mL or g | AUC0–24, Stomach ([9]; rats, i.g. 4 mg/kg SH-337): 94.1 ng equiv. h/mL or g | Percentage of all the metabolites except SH-337, RLMs ([10]; 30 min): 90.2% | Relative peak area, RLMs ([10]; SH-337 10 µM, 30 min incubation): 49% | Percentage of all the metabolites except SH-337, HLMs ([11]; 60 min): 89.4% | Relative peak area, HLMs ([11]; SH-337 10 µM, 60 min incubation): 27.8% | Relative peak area, RHeps [6]: 40.3% | Percentage of all the metabolites except SH-337, RHeps ([6]; rat hepatocytes, 60 min): 56.1% | Relative peak area, Hheps ([12]; SH-337, human hepatocytes, 120 min incubation): 11.6% | Percentage of all the metabolites except SH-337, Hheps ([12]; human hepatocytes, 120 min): 49.4% | Percentage of all SH-337 metabolites in microsomes [7]: 89.4-90.2% | Percentage of all SH-337 metabolites in hepatocytes [8]: 49.4–56.1%

SMILES: C/[N+]([O-])=C/c1cc(-c2ccccc2F)n(S(=O)(=O)c2cccnc2)c1 [M-III]
share in the in vitro metabolic profile of vonoprazan [1]: 4.1%

SMILES: O=C(O)c1c[nH]c(-c2ccccc2F)c1 [M-II]
share in the in vitro metabolic profile of vonoprazan [1]: 0.5%
